# Source: patent US11738099B2, “Molecular probes and methods of use” (CASE WESTERN RESERVE UNIVERSITY, priority 2014, dated 2023)
# “Also recorded” adds a separate entry of the source. Where a SMILES comes first, the peptide text is derived from it. The star is where a group is joined. X1 = O=C(O)CN1CCN(CC(=O)O)CCN(CC(O)Cn2cc(CCCC(=O)*)nn2)CCN(CC(=O)O)CC1; PEG2 = NCCOCCOCCC(=O)O
# Experiments:
# [1] = Relaxivity at 1.5T in water, 37° C.; type: physicochemical
# Protocol: Relaxivity is an important parameter for an MR contrast agent. It reflects how the relaxation rate of the surrounding water proton changes as a function of concentration, and it is directly associated with the agent's contrast enhancing capability during imaging. The relaxivity of the 4 contrast agents was tested at 37° C. in water and compared to Gd(HP-DO3A), Gd-DOTA and ZD2-Gd(HP-DO3A) (FIG. 26). […] Compared to Gd(HP-DO3A), Gd-DOTA, the size increase of the targeted contrast agents due to the peptides and PEG spacer could result in an increase of τR,^[42, 43] thus leading to higher relaxivities.
# PC3 tumors = test system: PC3 tumors
# Protocol: (§1) The following imaging parameters were used for T1 mapping methods: flip angle 10°; echo time 2.09 ms; slice thickness 1 mm; number of average 1; field of view 3×3 cm^2; matrix size 128×128. For each slice, 50 images that covered 5 s of the saturation recovery curve were acquired within an interval of 100 ms. Proton density (Mn) images were acquired with repetition time (TR) of 2 s. Cartesian MRSLL images were also acquired as a validation of spiral MRSLL method. Center 64 k-space lines were acquired in Cartesian method as described previously. Other acquisition parameters were the same as spiral MRSLL.
# (§2) Quantitative T1 maps of the tumors were acquired before and at 30 min after the injection of ZD2-Gd(HP-DO3A) and ProHance. […] At the end of the T1 map acquisitions, the mice were sacrificed and the Gd concentration in their tumors was measured by inductively coupled plasma optical emission spectrometry (ICP-OES).
# LNCaP tumors = conditions: 30 min after injection; before injection 3.21±0.12 s
# Protocol: as §1, §2
# [2] = test system: LNCaP prostate tumor xenografts; test: In vivo T1-weighted MRI at 7T, LNCaP tumors; set-up: species or system mouse
# Protocol: All MRI experiments were performed on a horizontal 7T Bruker scanner (Bruker Biospin Co., Billerica, Mass.). Imaging experiments were performed when the tumor size reached 5-8 mm in diameter. ZD2-Gd(HP-DO3A) was administered intravenously at the dose of 0.1 mmol/kg after acquiring pre-contrast images. Post-contrast images were obtained at 10 min interval up to 30 min. The axial slices of mouse at the tumor location were acquired using T1-weighted spin echo sequence with the following parameters: field of view (FOV): 3 cm; slice thickness: 1.2 mm; interslice distance: 1.2 mm; TR: 500 ms, TE: 8.1 ms; flip angle: 90°; average: 2; matrix size: 128×128. Contrast-to-noise ratio (CNR) at each time point was calculated by subtraction of the average signal intensity in the tumor and muscle, divided by the standard deviation of image noise. ProHance® (gadoteridol) was used as a control in the imaging experiments.
# [3] = Gd biodistribution (ICP-OES); conditions: 1 week after injection
# Protocol: PC3 tumor-bearing athymic nude mice (sixteen mice) were randomly divided into 4 groups (four mice each group). […] The animals were sacrificed at 2 and 7 days after injection. The blood and tissue samples, including brain, femur, heart, lung, liver, muscle, spleen, and kidney, were collected and weighed. The tissue samples were then cut into small pieces and mixed with ultra-pure nitric acid (1.0 mL, 70%, EMD, Gibbstown, N.J.). The tissue samples were liquefied within 2 weeks and the solution was transferred to a centrifuge tube and centrifuged at 14,000 rpm for 15 min. The supernatant (0.2 mL) was diluted with 9.8 mL deionized water and further centrifuged at 14,000 rpm for 15 min. The Gd(III) concentration in the final supernatant was measured by ICP-OES. […] The Gd content in different organ/tissues was calculated as the percentage of injected dose per gram of organ/tissues (% Dose/g).
# [4] = r1 relaxivity by T1 mapping in PC3 tumor lysates; type: physicochemical
# [5] = Relaxivity measurement at 3T; type: physicochemical
# Protocol: The design of the EDB-FN targeted MRI agent was based on a modular system that forms small molecular contrast agent in conjugation with l-ZD2. Compound 1 in FIG. 7A was prepared by adding a short PEG linker, followed by reacting with 5-hexynoic acid, resulting in an alkyne group for conjugation through click chemistry. The final product from reaction of compound 1 and 2 was purified with HPLC and characterized with Maldi-Tof spectrum.
# [6] = test system: LNCaP prostate tumor xenografts; test: T1-weighted MRI at 1 Tesla, LNCaP tumors (Example 3); type: in vivo, mouse; conditions: 0.1 mmol/kg i.v., up to 30 min
# Protocol: (§3) Male athymic nude mice were purchased from Case Comprehensive Cancer Center (Cleveland, Ohio, USA) and housed in the Animal Core Facility at Case Western Reserve University. All animal experiments were performed in accordance with the animal protocol approved by the CWRU Institutional Animal Care and Use Committee. Athymic nude male mice were subcutaneously injected with 100 μL cell suspension (4×10^7 cells/mL) in matrigel matrix (Corning Bioscience, Corning, N.Y.) to initiate tumors. Mice with tumors of 5-8 mm in diameter were used for imaging studies.
# MR images of tumor bearing mice were acquired on an Aspect M3 small animal MRI scanner (1 Tesla). Mice were placed on a holder with the temperature maintained at 37° C., with isoflurane/oxygen mixture supplied to the mice through a nose cone. A thin catheter filled with PBS was connected to a tail vein of the mice. After mice were placed in the coil, a pilot scan was performed to adjust mice to the proper location in the coil. […] Images were exported into DICOM data, which were then processed and analyzed using Matlab (Natick, Mass., USA). The contrast to-noise ratio of tumors in the images were calculated as the difference between tumor mean intensity minus muscle mean intensity, divided by the noise.
# [7] = In vitro transmetallation in serum; type: in vitro ADME, human; conditions: blood plasma containing Cu2+, Ca2+, Zn2+; vs MultiHance and OmniScan
# Protocol: […] The plasma mixtures were transferred to CF-10 centrifugal filters (molecular weight cut-off 10 KDa) and centrifuged at 4,000 rpm and 25° C. for 150 min. During centrifugation, the solution in the upper reservoir was agitated using a pipette every 20 min for the plasma mixtures. The content of metal ions in both the upper reservoir and the filtrates was determined by ICP-OES after appropriate dilution. The degree of transmetallation of the contrast agents with Zn(II) or Cu(II) ions in the plasma was evaluated using the percentage of Zn(II) or Cu(II) ions filtered through the membrane, calculated as Zn(Cu) %=(concentration of Zn(II) or Cu(II) in the filtrates)/(total Zn(II) or Cu(II) concentration before centrifugal filtration)×100. Human serum was used a control.
# [8] = test system: PC3 prostate tumor xenografts; test: T1-weighted MRI at 1 Tesla, PC3 tumors (Example 3); type: in vivo, mouse
# Protocol: as §3
# MR images of tumor bearing mice were acquired on an Aspect M3 small animal MRI scanner (1 Tesla). Mice were placed on a holder with the temperature maintained at 37° C., with isoflurane/oxygen mixture supplied to the mice through a nose cone. A thin catheter filled with PBS was connected to a tail vein of the mice. After mice were placed in the coil, a pilot scan was performed to adjust mice to the proper location in the coil. An axial T1 weighted sequence (TR=500 ms; TE=9 ms; Flip angle=90°; Field of view=3 cm×3 cm; Matrix size=128×128×8; slice thickness=2 mm; interslice distance=1 mm) was then used to acquire the images of the tumors before and 10 min, 20 min and 30 min after contrast injection. Images were exported into DICOM data, which were then processed and analyzed using Matlab (Natick, Mass., USA). The contrast to-noise ratio of tumors in the images were calculated as the difference between tumor mean intensity minus muscle mean intensity, divided by the noise.
smiles,measurement,setting,value
CC(C)[C@H](NC(=O)[C@@H](NC(=O)CCOCCOCCNC(=O)CCCc1cn(CC(O)CN2CCN(CC(=O)O)CCN(CC(=O)O)CCN(CC(=O)O)CC2)nn1)[C@@H](C)O)C(=O)N[C@@H](CCCNC(=N)N)C(=O)N[C@H](C(=O)N[C@@H](CO)C(=O)N[C@@H](C)C(=O)N[C@@H](CC(=O)O)C(=O)O)[C@@H](C)O (stereo partly shown) [ZD2-Gd(HP-DO3A)] ({X1-PEG2}-TVRTSAD-OH),r1,[1],5.4 mM⁻¹ s⁻¹
same,tumor T1,"PC3 tumors; 30 min after injection, before injection 2.75±0.05 s",1.81 ± 0.07 s
same,change in relaxation rate (ΔR1),"PC3 tumors; among all cases (PC3/LNCaP, ZD2-Gd(HP-DO3A)/ProHance)",highest relaxation rate change
same,Gd concentration in PC3 tumors by ICP-OES,"PC3 tumors; mouse, in vivo",significantly higher concentration
same,tumor T1,LNCaP tumors,2.54 ± 0.13 s
same,signal enhancement in LNCaP tumors,"[2]; 0.1 mmol/kg i.v., up to 30 min, 7T",significantly lower signal enhancement
same,CNR in LNCaP tumors,[2]; 10-30 min post-injection,6-9
same,increase of CNR in LNCaP tumors,[2]; during the first 30 min after injection,10-60%
same,CNR in LNCaP tumors relative to PC3 tumors,[2]; first 30 min,more than two times lower
same,tissue retention of Gd,[3],same low tissue retention as ProHance
same,r1 relaxivity,[4],4.12 mM⁻¹ s⁻¹
same,relaxivities (T1 and T2),[5],relatively high relaxivities
same,signal enhancement in LNCaP tumors,[6],significantly lower signal enhancement; also recorded: did not produce significant contrast enhancement
same,stability against transmetallation,[7],same high stability as ProHance
same,signal enhancement in PC3 tumors,"[8]; 0.1 mmol/kg i.v., up to 30 min, 1 Tesla",Strong signal enhancement
same,increase of contrast-to-noise ratio (CNR) in PC3 tumors,[8]; 10 min after injection,over two-fold increase
